Test results from patent US7935719B2, “N-substituted-azacyclylamines as histamine-3 antagonists” (Wyeth LLC, priority 2006, dated 2011).
Where a name gives a salt, the structure may show the parent alone.

Assays:
Histamine Receptor H3 [1] = target: T1, Histamine Receptor H3 (Homo sapiens, UniProt Q9Y5N1); assay: Cyclic AMP assay for histamine receptor H3 antagonism activity; assay type: cell-based; design: expressed in transfected cells; conditions: stable H3 cells, histamine plus 10 μM forskolin, 30 min at 30° C., HitHunter cAMP kit
T1 sequence (Q9Y5N1 whole entry): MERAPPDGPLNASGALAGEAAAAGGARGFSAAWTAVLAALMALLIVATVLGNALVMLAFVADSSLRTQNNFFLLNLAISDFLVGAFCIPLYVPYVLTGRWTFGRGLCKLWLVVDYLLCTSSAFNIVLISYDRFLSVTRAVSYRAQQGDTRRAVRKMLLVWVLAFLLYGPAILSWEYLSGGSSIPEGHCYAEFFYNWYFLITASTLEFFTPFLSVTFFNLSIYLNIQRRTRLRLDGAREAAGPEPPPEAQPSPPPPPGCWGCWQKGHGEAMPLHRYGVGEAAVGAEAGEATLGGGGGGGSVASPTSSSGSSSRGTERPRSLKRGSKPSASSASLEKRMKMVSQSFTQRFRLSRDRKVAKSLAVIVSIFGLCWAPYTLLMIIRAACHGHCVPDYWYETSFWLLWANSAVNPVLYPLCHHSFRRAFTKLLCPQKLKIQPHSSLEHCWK
Description: Cyclic Amp Assay for Histamine Receptor H3 Antagonism Activity.
Stable H3 cells are maintained in tissue culture flask in DMEM with high glucose, 10% FBS, 1× pen/strep, 500 ug/ml GY18, until experiment. Culture media is removed and cells are washed twice with PBS w/Ca+2 and Mg+2 plus 500 μM IBMX. Cells are then detached by tapping on the side of the flask and resuspend in the same buffer. Two thousand cells/well are incubated with 1 μM histamine plus 10 μM forskolin plus various concentrations of compounds in a total volume of 30 μL in 96 well plates for 30 min at 30° C. Final test compound concentrations range from 10^-4 M to 10-9.5 M at full log dilutions. Cyclic AMP levels are measured using HitHunter cAMP kit from Discoverx, cat#900041 according to manufacturer's instruction. Chemiluminescence signals are detected using Top Count (Packard). Cyclic AMP levels in control cells receiving 10 μM forskolin plus 100 nM histamine are considered 0%, and in cells receiving 10 uM forskolin plus 100 nM histamine plus 1 μM clobenpropit are considered 100%. Data are expressed as % control and analyzed using Prizm software. The Kb values are calculated using the following equation, KB=EC50 or IC50/[1+(ligand/Kd)].

Histamine Receptor H3 [2] = target: T1, Histamine Receptor H3; assay: Methyl histamine binding in human histamine H3 receptor cell line; design: expressed in transfected cells; host or cells: HEK293T; conditions: membranes of stably transfected HEK293T cells, radioligand 1 nM, Ki from IC50 by Cheng-Prusoff
Description: Evaluation of Methyl Histamine Binding in Human Histamine H3 Receptor Cell Line
The affinity of test compounds for the histamine 3 (H3) receptor is evaluated in the following manner. […] Cells are scraped from the plate, transferred to centrifuge tubes, washed one time in PBS by centrifugation in a Sorvall RT7 Plus centrifuge (2000 rpm 10 minutes, 4° C.). The resulting pellets are stored at −80° C. until ready for use. Cells are re-suspended in buffer (50 mM Tris pH=7.5) and placed in a Dounce homogenizer, douncing ten times to homogenize cells. The homogenate is spun down by centrifugation (Sorvall RT7 Plus, 1800 rpm 10 minutes, 4° C.). The supernatant is placed in a Corex tube and spun down by centrifugation (Sorvall RC 5c Plus, 17,000 rpm 20 minutes, 4° C.). The pellet is resuspended in buffer (50 mM Tris, pH 7.5). Protein concentration (ug/ul) is determined using the Micro-BCA Protein Determination. The binding assay is set up in a 96 well microtiter plate in a total volume of 250 uL. Non-specific binding is determined in the presence of 10 uM clobenpropit. The final radioligand concentration is 1 nM. The test compound is serially diluted using the Beckman Biomek2000 to a final approximate range of 100 uM to 100 pM. Membranes are suspended in buffer, homogenized in 2 bursts of ten seconds using a Vitris mechanical homogenizer set at power setting 5. Ten μg of membranes are added to each well. Following a one hour incubation at 30° C., the reaction is terminated by the addition of ice cold buffer and rapid filtration with a Packard Filtermate Harvester through a GF/B filter pre-soaked with 1% PEI for one hour. The plate is dried for one hour at 37° C. and 60 μL Microscint Scintillant is added to each well. The CPM per well is measured on a Packard Top Count NXT. Ki values are determined in nM. […] CPM values are expressed as % specific binding and plotted vs compound concentration. A curve is fitted using a four-parameter logistic fit and the IC50 value is determined. The Ki is calculated from this using the Cheng-Prusoff equation: […]=IC50/1+(L/Kd) where L=concentration of free radioligand used in the assay, and Kd is the dissociation constant of the radioligand for the receptor. L is determined for each experiment by counting an aliquot of the diluted radioligand (corresponding to that added to each well) and the Kd has previously been determined under identical conditions for this cell line/radioligand.

Compound | Kb (Histamine Receptor H3 [1]) [nM] | Ki (Histamine Receptor H3 [2]) [nM]
Cc1nc2ccccc2n1-c1ccc(C(=O)N2CC[C@H](N3CCC[C@H]3C)C2)cc1 [Example 21, (2R,3′S)-2-methyl-1′-[4-(2-methyl-1H-benzimidazol-1-yl)benzoyl]-1,3′-bipyrrolidine] | < 10 | < 10
Cc1nc2ccccc2n1-c1ccc(C(=O)N2CC[C@H](N3CCC[C@@H]3C)C2)cc1 [Example 22, (2S,3′S)-2-methyl-1′-[4-(2-methyl-1H-benzimidazol-1-yl)benzoyl]-1,3′-bipyrrolidine] | < 10 | < 10
Cc1nc2ccccc2n1-c1ccc(C(=O)N2CC[C@H](N3CCCC(C)C3)C2)cc1 (stereo partly drawn) [Example 24, 2-methyl-1-(4-{[(3S)-3-(3-methylpiperidin-1-yl)pyrrolidin-1-yl]carbonyl}phenyl)-1H-benzimidazole] | < 10 | < 10
COc1ccc2c(ccn2-c2ccc(C(=O)N3CC[C@H](N4CCCC4)C3)cc2)c1 [Example 33, (3′S)-1′-[4-(5-methoxy-1H-indol-1-yl)benzoyl]-1,3′-bipyrrolidine] | < 10 | < 10
N#Cc1ccc2c(ccn2-c2ccc(C(=O)N3CC[C@H](N4CCCC4)C3)cc2)c1 [Example 36, 1-{4-[(3′S)-1,3′-bipyrrolidin-1′-ylcarbonyl]phenyl}-1H-indole-5-carbonitrile] | < 10 | < 10
O=C(c1ccc(-n2ncc3cc(F)ccc32)cc1)N1CC[C@H](N2CCCC2)C1 [Example 40, (3′S)-1′-[4-(5-fluoro-1H-indazol-1-yl)benzoyl]-1,3′-bipyrrolidine] |  | < 10
O=C(c1ccc(-n2ncc3ccc(F)cc32)cc1)N1CC[C@H](N2CCCC2)C1 [Example 41, (3′S)-1′-[4-(6-fluoro-1H-indazol-1-yl)benzoyl]-1,3′-bipyrrolidine] |  | 10.1 to 25
N#Cc1ccc2c(cnn2-c2ccc(C(=O)N3CC[C@H](N4CCCC4)C3)cc2)c1 [Example 42, 1-{4-[(3′S)-1,3′-bipyrrolidin-1′-ylcarbonyl]phenyl}-1H-indazole-5-carbonitrile] |  | < 10
N#Cc1ccc2nn(-c3ccc(C(=O)N4CC[C@H](N5CCCC5)C4)cc3)cc2c1 [Example 43, 2-{4-[(3′S)-1,3′-bipyrrolidin-1′-ylcarbonyl]phenyl}-2H-indazole-5-carbonitrile] |  | < 10
O=C(c1ccc(-n2cc3ccc(F)cc3n2)cc1)N1CC[C@H](N2CCCC2)C1 [Example 44, (3′S)-1′-[4-(6-fluoro-2H-indazol-2-yl)benzoyl]-1,3′-bipyrrolidine] |  | < 10
O=C(c1ccc(-n2cc3cc(F)ccc3n2)cc1)N1CC[C@H](N2CCCC2)C1 [Example 45, (3′S)-1′-[4-(5-fluoro-2H-indazol-2-yl)benzoyl]-1,3′-bipyrrolidine] |  | < 10
N#Cc1ccc2c(ccn2-c2ccc(C(=O)N3CC[C@@H](N4CCCC4)C3)cc2)c1 [Example 46, 1-{4-[(3′R)-1,3′-bipyrrolidin-1′-ylcarbonyl]phenyl}-1H-indole-5-carbonitrile] |  | < 10

Now from value to compound:

Kb (Histamine Receptor H3 [1]) [nM] | Ki (Histamine Receptor H3 [2]) [nM] | Compound
< 10 | < 10 | O=C(c1ccc(-n2cnc3ccccc32)cc1)N1CCC(N2CCCC2)C1 (stereo not shown) [Example 2, 1′-[4-1H-benzimidazol-1-yl)benzoyl]-1,3′-bipyrrolidine hydrochloride]
25.1 to 50 | < 10 | O=C(c1ccc(-n2cnc3ccccc32)cc1)N1CC[C@H](N2CCCC2)C1 [Example 5, (3′S)-1′-[4-(1H-benzimidazol-1-yl)benzoyl]-1,3′-bipyrrolidine hydrochloride]
< 10 | < 10 | C[C@H]1CCCN1[C@H]1CCN(C(=O)c2ccc(-n3cnc4ccccc43)cc2)C1 [Example 7, (2S,3′S)-1′-[4-(1H-benzimidazol-1-yl)benzoyl]-2-methyl-1,3′-bipyrrolidine]
< 10 | < 10 | O=C(c1ccc(-n2cnc3ccccc32)cc1)N1CC[C@H](N2CCCCCC2)C1 [Example 11, 1-(4-{[(3S)-3-azepan-1-ylpyrrolidin-1-yl]carbonyl}phenyl)-1H-benzimidazole]
< 10 | < 10 | Cc1nc2ccccc2n1-c1ccc(C(=O)N2CC[C@H](N3CCCCC3)C2)cc1 [Example 28, 2-methyl-1-(4-{[(3S)-3-piperidin-1-ylpyrrolidin-1-yl]carbonyl}phenyl)-1H-benzimidazole]
< 10 | < 10 | O=C(c1ccc(-n2ccc3c(F)cccc32)cc1)N1CC[C@H](N2CCCC2)C1 [Example 31, (3′S)-1′-[4-(4-fluoro-1H-indol-1-yl)benzoyl]-1,3′-bipyrrolidine]
 | < 10 | O=C(c1ccc(-n2ccc3cccc(Cl)c32)cc1)N1CC[C@H](N2CCCC2)C1 [Example 34, (3′S)-1′-[4-(7-chloro-1H-indol-1-yl)benzoyl]-1,3′-bipyrrolidine]
 | < 10 | O=C(c1ccc(-n2ccc3cc(Br)ccc32)cc1)N1CC[C@H](N2CCCC2)C1 [Example 35, (3′S)-1′-[4-(5-bromo-1H-indol-1-yl)benzoyl]-1,3′-bipyrrolidine]
< 10 | < 10 | O=C(c1ccc(-n2ccc3cc(F)ccc32)cc1)N1CC[C@H](N2CCCC2)C1 [Example 37, (3′S)-1′-[4-(5-fluoro-1H-indol-1-yl)benzoyl]-1,3′-bipyrrolidine]
 | < 10 | Cc1cc2ccccc2n1-c1ccc(C(=O)N2CC[C@H](N3CCCC3)C2)cc1 [Example 38, (3′S)-1′-[4-(2-methyl-1H-indol-1-yl)benzoyl]-1,3′-bipyrrolidine]
< 10 | < 10 | O=C(c1ccc(-n2ccc3cccc(F)c32)cc1)N1CC[C@H](N2CCCC2)C1 [Example 39, (3′S)-1′-[4-(7-fluoro-1H-indol-1-yl)benzoyl]-1,3′-bipyrrolidine]
 | 25.1 to 50 | N#Cc1ccc2c(c1)ncn2-c1ccc(C(=O)N2CC[C@H](N3CCCC3)C2)cc1 [Example 48, 1-{4-[(3′S)-1,3′-bipyrrolidin-1′-ylcarbonyl]phenyl}-1H-benzimidazole-5-carbonitrile fumarate]
